Test results: patent publication US20090175981A1, “COMPOSITIONS, METHODS AND USES FOR A NOVEL FAMILY OF PEPTIDES” (priority 2004, published 2009)
Where “and” joins values, the source holds several entries; their conditions need not be identical. Equal values may be shown once. Marks after values point to notes of the source that are not given here.

What was measured:
[1] = biological target: A-domain of BT NRPS Module 5 (Brevibacillus texasporus, UniProt Q2VQ15); assay: ATP-PPi exchange assay, Module 5 A-domain; format: biochemical; conditions: for relative activation (highest activity = 100%): 0.5 mM amino acid; for Km: read-out: apparent Km
Chain of A-domain of BT NRPS Module 5 (Q2VQ15 entry or part of it): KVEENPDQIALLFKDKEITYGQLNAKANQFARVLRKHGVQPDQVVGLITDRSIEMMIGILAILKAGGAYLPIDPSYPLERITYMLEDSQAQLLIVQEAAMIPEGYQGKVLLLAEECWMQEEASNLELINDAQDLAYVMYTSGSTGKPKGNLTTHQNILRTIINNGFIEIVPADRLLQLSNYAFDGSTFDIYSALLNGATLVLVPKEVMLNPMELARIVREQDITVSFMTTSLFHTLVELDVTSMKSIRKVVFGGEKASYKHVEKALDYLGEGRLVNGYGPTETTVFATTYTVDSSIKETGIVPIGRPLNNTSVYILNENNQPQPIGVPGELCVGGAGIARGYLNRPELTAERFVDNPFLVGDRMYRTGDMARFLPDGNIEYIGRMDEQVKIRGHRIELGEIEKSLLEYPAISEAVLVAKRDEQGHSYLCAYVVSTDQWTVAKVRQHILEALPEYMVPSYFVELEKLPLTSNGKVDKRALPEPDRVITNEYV
Experimental: (§1) Cloning, overexpression, and purification of His10-tagged BT A-domain proteins. DNA fragments encoding the A-domains of the BT NRPS Modules 8, 5, 7, 4 and 2 (Bt8A, 8t5A, Bt7A, Bt4A and Bt2A) were PCR-amplified and the PCR products were inserted into the His10-tag recombinant protein expression vector pET16b (Novagen). The A-domain borders were determined as defined by (Konz, et al., 1999). The expression constructs were transformed into the E. coli BL21-AI strain (Invitrogen). Transformants were grown in L-broth at 37° C. to an A600 of 0.6 and then induced with 1 mM IPTG (isopropyl-β-D-thiogalactopyranoside) plus 0.2% L-arabinose. The cells were allowed to grow for two additional hours at 30° C. before being harvested. Purification of the His10-tag recombinant proteins was achieved using the TALON metal affinity resins (BD Biosciences) under conditions recommended in the manual with modifications. Briefly, the E. coli cells were broken by sonication. Cell lysates were cleared by centrifugation at 25,000×g for one hour. His-tagged recombinant proteins were then incubated with the TALON resin, washed, and eluted with 500 mM imidazole. Eluted proteins were dialyzed against a buffer (50 mM HEPES, pH 8.0, 100 mM sodium chloride, 10 mM magnesium chloride, and 1 mM EDTA) and then analyzed with SDS PAGE plus Coomassie Blue staining. […] Concentrations of the purified proteins were determined by using the calculated molar extinction coefficient for the A280.
(§2) ATP-PPi exchange assay. ATP-PPi exchange assays were performed to determine the substrate specificity of an A-domain. ATP-PPi exchanges were assayed as previously described (Stachelhaus, et al., 1998) with minor modifications. The assay mixture contained 50 mM HEPES (pH 8.0), 100 mM NaCl, 10 mM MgCl2, 2 mM ATP, 0.5 mM amino acid, 0.05 mM PPi, 0.15 μCi tetrasodium [^32P]pyrophosphate. Exchange was initiated by addition of purified recombinant A-domain proteins to a total volume of 0.1 ml. The protein concentrations were 0.2 μM for Module 4 and Module 5 A-domains while 2 μM for Module 7 and Module 8 A-domains. After incubation at 37° C. for 15 min, the reaction was stopped by addition of 0.5 ml of Terminaton Mix (100 mM tetrasodium pyrophosphate, 3.5% HClO4, and 1.6% [w/v] activated charcoal). The charcoal was pelleted by centrifugation, washed first with 40 mM pyrophosphate plus 1.4% perchloric acid and then with water, and was re-suspended in 0.5 ml of water. The charcoal/water suspension was added to a scintillation vial containing 5.0 ml of scintillation fluid, and the bound radioactivity was determined by liquid scintillation counting. The apparent Km values were determined with substrate concentrations ranging from 0.1 to 10 mM.
(§3) Since a purified recombinant A-domain of an NRPS module can selectively and efficiently activate the cognate amino acid substrate of the NRPS module in an ATP-PPi exchange assay (Konz, et al., 1999; Mootz & Marahiel, 1997), ATP-PPi exchange assays have been used to experimentally establish NRPS module specificities and novel NRPS codons. Recombinant A-domains of Modules 8, 5, 7, 4 and 2 of the BT NRPS were produced and purified as described in Methods and Materials. Almost completely soluble recombinant A-domain proteins were obtained. A-domain specificities were determined in ATP-PPi exchange and aa Km assays (see Methods and Materials), and the results are shown in FIG. 5. […]

[2] = biological target: A-domain of BT NRPS Module 8 (Bt8A) (Brevibacillus texasporus, UniProt Q2VQ14); assay: ATP-PPi exchange assay, Module 8 A-domain; format: biochemical; conditions: for relative activation (highest activity = 100%): 0.5 mM amino acid
Chain of A-domain of BT NRPS Module 8 (Bt8A) (Q2VQ14 entry or part of it): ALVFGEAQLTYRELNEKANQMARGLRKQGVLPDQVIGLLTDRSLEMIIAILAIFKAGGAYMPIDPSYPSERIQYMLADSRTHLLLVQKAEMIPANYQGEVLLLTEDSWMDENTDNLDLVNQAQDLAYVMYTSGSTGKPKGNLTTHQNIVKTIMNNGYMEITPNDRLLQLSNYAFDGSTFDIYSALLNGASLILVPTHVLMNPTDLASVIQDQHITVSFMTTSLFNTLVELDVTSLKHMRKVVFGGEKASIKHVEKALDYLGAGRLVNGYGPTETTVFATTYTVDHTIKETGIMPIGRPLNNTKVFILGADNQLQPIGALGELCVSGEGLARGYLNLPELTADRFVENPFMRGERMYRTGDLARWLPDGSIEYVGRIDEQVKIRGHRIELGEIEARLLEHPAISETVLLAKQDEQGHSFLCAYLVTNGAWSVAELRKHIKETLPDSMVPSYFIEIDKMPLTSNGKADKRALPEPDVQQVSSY
Experimental: as §1
(§4) ATP-PPi exchange assay. ATP-PPi exchange assays were performed to determine the substrate specificity of an A-domain. ATP-PPi exchanges were assayed as previously described (Stachelhaus, et al., 1998) with minor modifications. The assay mixture contained 50 mM HEPES (pH 8.0), 100 mM NaCl, 10 mM MgCl2, 2 mM ATP, 0.5 mM amino acid, 0.05 mM PPi, 0.15 μCi tetrasodium [^32P]pyrophosphate. Exchange was initiated by addition of purified recombinant A-domain proteins to a total volume of 0.1 ml. The protein concentrations were 0.2 μM for Module 4 and Module 5 A-domains while 2 μM for Module 7 and Module 8 A-domains. […] The charcoal/water suspension was added to a scintillation vial containing 5.0 ml of scintillation fluid, and the bound radioactivity was determined by liquid scintillation counting. […]
as §3, with “Recombinant A-domains of Modules 8, 5, 7, 4 and 2 of the BT NRPS were produced and purified as described in Methods and Materials. Almost completely soluble recombinant A-domain proteins were obtained.” left out

[3] = test system: A-domain of BT NRPS Module 2 (Bt2A); assay: ATP-PPi exchange assay, Module 2 A-domain; format: biochemical, Brevibacillus texasporus; conditions: 0.5 mM amino acid
Experimental: as §1, §2, §3

[4] = biological target: A-domain of BT NRPS Module 4 (Bt4A) (Brevibacillus texasporus, UniProt Q2VQ15); assay: ATP-PPi exchange assay, Module 4 A-domain; format: biochemical; conditions: for relative activation (highest activity = 100%): 0.5 mM amino acid
Chain of A-domain of BT NRPS Module 4 (Bt4A) (Q2VQ15 entry or part of it): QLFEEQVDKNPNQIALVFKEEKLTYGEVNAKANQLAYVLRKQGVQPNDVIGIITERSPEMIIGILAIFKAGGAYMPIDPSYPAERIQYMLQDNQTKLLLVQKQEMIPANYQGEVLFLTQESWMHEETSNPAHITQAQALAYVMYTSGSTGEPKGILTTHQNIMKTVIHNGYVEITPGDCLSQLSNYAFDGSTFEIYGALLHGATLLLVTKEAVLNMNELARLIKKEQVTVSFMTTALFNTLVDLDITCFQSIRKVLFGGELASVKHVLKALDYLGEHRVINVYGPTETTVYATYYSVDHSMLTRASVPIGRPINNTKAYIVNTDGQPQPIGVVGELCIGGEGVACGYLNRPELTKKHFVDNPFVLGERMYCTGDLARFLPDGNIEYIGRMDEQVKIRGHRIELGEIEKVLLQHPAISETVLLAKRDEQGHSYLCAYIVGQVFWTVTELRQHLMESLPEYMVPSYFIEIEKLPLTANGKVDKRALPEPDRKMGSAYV
Experimental: as §1, §4
as §3, with “Recombinant A-domains of Modules 8, 5, 7, 4 and 2 of the BT NRPS were produced and purified as described in Methods and Materials. Almost completely soluble recombinant A-domain proteins were obtained.” left out

[5] = biological target: A-domain of BT NRPS Module 7 (Bt7A) (Brevibacillus texasporus, UniProt Q2VQ15); assay: ATP-PPi exchange assay, Module 7 A-domain; format: biochemical; conditions: 0.5 mM amino acid
Chain of A-domain of BT NRPS Module 7 (Bt7A) (Q2VQ15 entry or part of it): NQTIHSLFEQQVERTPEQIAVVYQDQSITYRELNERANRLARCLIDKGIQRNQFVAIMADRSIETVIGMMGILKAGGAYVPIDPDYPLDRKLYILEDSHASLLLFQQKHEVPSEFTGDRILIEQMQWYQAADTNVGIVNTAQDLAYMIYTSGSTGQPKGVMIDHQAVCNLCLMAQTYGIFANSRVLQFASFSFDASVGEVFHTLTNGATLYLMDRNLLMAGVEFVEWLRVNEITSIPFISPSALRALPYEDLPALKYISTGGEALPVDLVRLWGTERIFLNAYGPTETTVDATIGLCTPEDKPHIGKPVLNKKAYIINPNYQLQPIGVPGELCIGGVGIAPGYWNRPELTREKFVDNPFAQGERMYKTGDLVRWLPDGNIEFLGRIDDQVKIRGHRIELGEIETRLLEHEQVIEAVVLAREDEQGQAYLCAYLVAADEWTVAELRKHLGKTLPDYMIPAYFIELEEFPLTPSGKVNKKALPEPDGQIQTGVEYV

[6] = test system: broiler chickens; assay: 42-day broiler floor pen trial with natural colibacillosis challenge; format: in vivo, chicken; conditions: for Day 42 Feed/Gain / Day 42 Gain/Bird / Day 42 Mortality (%) / Day 42 Adjusted Feed/Gain: MON 99 ppm, BT1583 12 ppm, BMD 55 ppm; for Day 42 Feed/Gain / Day 42 Gain/Bird: alone or combined; for Day 42 Mortality (%): acute and chronic colibacillosis; for Day 42 Adjusted Feed/Gain: adjusted for weight of mortality
Experimental: A broiler floor pen trial to compare the performance of a new anti-microbial designated for this project as BT1583 alone and in combination with the widely used coccidiostat monensin (MON) to MON fed alone, MON in combination with the also widely used antimicrobial Bacitracin MD (BMD) and BMD alone.
The following levels of each treatment were evaluated:
The study design included 10 pens per treatment and 40 birds per pen housed on day of hatch. Two basal corn-soy based diets of decreasing protein (approximately 23 to 20%) and increasing metabolizable energy (approximately 1400 to 1455 kcal/lb) were used from Day 0 to 21 (starter feed) and Days 22 to 42 (grower feed), respectively. Treatment premixes were measured and blended into diets at required levels. Between days 0 and 21 mortality was less than 1% with all birds growing optimally and of high health across all groups.
Beginning on study day 22, the study director modulated house temperature and air flow to mimic industry conditions conducive to outbreaks of colibacillosis within naïve broiler flocks. This was done to stimulate a natural challenge for this study. Mortality climbed to a house average of approximately 10% by Day 42. A majority of these deaths occurred in groups not receiving BT1583 or MON. Lesions were consistent with those of colibacillosis (air sac, pneumonia, peri-hepatitis, peri-carditis and extreme morbidity). All mortality was documented (weight at death and post-mortem observations). All birds and feeds were weighed at 42 days. All remaining birds were euthanized on Day 42 by asphyxiation with the carcasses submitted for rendering.
The following variables were tested: Response Variables: Gain Per Bird, Feed Per Gain, Mortality (%), Adjusted Feed Per Gain. F test from One Way ANOVA with one blocking factor=location, at Day 42 using 0.05 level of significance.
All Response Variables: LSD T-test procedure for pair-wise comparisons with Type 1 error of means when ANOVA F ratio is significant, overall significance level of 0.05 used. Lines below means (see Table 30, below) indicate groups with insignificant differences in means.
Adjusted Feed/Gain: The total weight of mortality in each pen was added to the final live weight, that value reduced by subtracting the initial weight and then dividing that value into the Total feed consumed to calculate the Adjusted Feed/Gain.

[7] = test system: straight run broilers; assay: Growth and feed conversion of 3-wk old broilers in batteries, pelleted starter feed (Studies 3-1 and 3-2); format: in vivo, chicken; conditions: BT1583 12 ppm, BMD 50 ppm, COB 90 ppm, alone or combined, pelleted feed
Source text: Eight (8) study repetitions per treatment were used, again with 4 birds per pen.

CC[C@H](C)[C@H](N)C(=O)O [L-Ile]
relative activation (highest activity = 100%) [1]: 23% | Km [1]: 2780 µM | relative activation (highest activity = 100%) [2]: 4% | relative activation (highest activity = 100%) [3]: 19% | relative activation (highest activity = 100%) [4]: 100% | Km ([4]; read-out: apparent Km): 500 µM

CC(C)C[C@H](N)C(=O)O [L-Leu]
relative activation (highest activity = 100%) [1]: 17% | relative activation (highest activity = 100%) [3]: 98% | relative activation (highest activity = 100%) [4]: 7%

NCCCC[C@H](N)C(=O)O [L-Lys]
relative activation (highest activity = 100%) [2]: 10% | activation [5]: only amino acid that activated

CSCC[C@H](N)C(=O)O [L-Met]
relative activation (highest activity = 100%) [3]: 100%

N[C@@H](Cc1ccccc1)C(=O)O [L-Phe]
relative activation (highest activity = 100%) [3]: 3.5%

CC(C)[C@H](N)C(=O)O [L-Val]
relative activation (highest activity = 100%) [1]: 100% | Km [1]: 1110 µM | relative activation (highest activity = 100%) [2]: 100% | Km ([2]; read-out: apparent Km): 2750 µM | relative activation (highest activity = 100%) [3]: 67% | relative activation (highest activity = 100%) [4]: 9%

CC[C@@]1([C@@H]2O[C@@H]([C@H]3O[C@@](O)(CO)[C@H](C)C[C@@H]3C)C[C@@H]2C)CC[C@H]([C@]2(C)CC[C@]3(C[C@H](O)[C@@H](C)[C@@H]([C@@H](C)[C@@H](OC)[C@H](C)C(=O)O)O3)O2)O1 [Monensin, monensin]
Day 42 Feed/Gain [6]: 1.854^b | Day 42 Gain/Bird [6]: 4.111^bcd lb | Day 42 Mortality (%) [6]: 8.00^a % | Day 42 Adjusted Feed/Gain [6]: 1.761^b | mortality rate compared with non-supplemented controls ([6]; alone or in combination): lower mortality rates | 20-day cumulative feed conversion rate, Mean [7]: 1.3712 | 21-day cumulative feed conversion rate, Estimated Marginal Mean [7]: 1.371 | 21-day cumulative weight gain, Mean ([7]; listed as COB): 792.8438 and 792.844

Bacitracin MD [BMD, reference compound]
Day 42 Feed/Gain [6]: 2.147^c | Day 42 Gain/Bird [6]: 3.971^cd lb | Day 42 Mortality (%) [6]: 18.25^bc % | Day 42 Adjusted Feed/Gain [6]: 1.838^bc | 20-day cumulative feed conversion rate, Mean [7]: 1.3397 | 21-day cumulative feed conversion rate, Estimated Marginal Mean [7]: 1.340 | 21-day cumulative weight gain, Mean [7]: 832.9688 and 832.969
